Assay results reported in patent US20120093947A1, “METHOD OF TREATING REACTIVE AIRWAY DISEASE” (UNITED STATES DEPARTMENT OF VETERANS AFFAIRS, priority 2009, published 2012).
Read-outs that look alike come from different tables or passages of the source.

Assays:
LPO = target: T1, LPO (Bos taurus, UniProt P80025); experiment: EPR of MNP adducts with radicals from β2-agonists generated by LPO/H2O2; format: biochemical, bovine; conditions: pH 8.0
T1 construct: Lactoperoxidase (LPO) from bovine milk (EC 1.11.1.7); purchased Sigma-Aldrich Co. (St. Louis, Mo.); host or cells: bovine milk (natural source)
Method: (§1) Formation of free radicals from β2-agonists is studied in samples prepared in 100 mM phosphate buffer (pH 7.0 and 8.0)/DTPA (0.2 mM) (total volume 250 μL) containing MNP, MPO (or LPO) and the agonists. The reaction is initiated by the addition of H2O2 as the last component. In experiments in which H2O2 was generated using glucose (1 mM) and glucose oxidase (3.9 μg/mL), glucose oxidase is added as a last component. The sample is transferred to a flat aqueous EPR cell and recording is started 1 minute after initiation of the reaction. Typically, spectra of MNP adducts are recorded using microwave power 20 mW, modulation amplitude 0.1 mT, receiver gain 2×10^5, conversion time 40.96 ms, time constant 81.92 ms, and scan rate of 10 mT/41.92 s. EPR spectra constitute an average of 5 scans and represent results of typical experiments. Unless stated otherwise, direct EPR measurements (spin traps omitted) of free radicals derived from β2-agonists are performed using conditions similar to those for the detection of MNP adducts. EPR spectra are simulated using WINSIM software developed at NIEHS/NIH (RTP, NC).
(§2) The effect of methimazole and dapsone on the formation of free radicals from drugs is studied in phosphate buffers (pH 7.0 and 8.0) containing DTPA (0.2 mM) and MNP (10 mM in dimers). Oxidation is carried out by MPO (0.43 units/mL)/H2O2 (37 μM) and LPO (0.39 μM)/glucose (1 mM)/glucose oxidase (0.8 μg/mL). […]
(§3) Table 3, below, summarizes the effects of dapsone and methimazole on EPR spectra of MNP adducts with radicals from fenoterol and terbutaline generated by MPO/H2O2 and LPO/H2O2 systems at a pH of 8.0. Concentrations of MNP spin adducts were calculated as second integrals of the low-field component of the respective spectra and are expressed as % of control samples (no additives). Results equal the means±SE of at least two measurements.
(§4) . […] This is consistent with the known inhibitory action of both methimazole and dapsone on LPO activity and only methimazole on MPO activity. Thomas et al. (1994) J. Dent. Res. 73(2):544-55. Results obtained at pH 7.0 qualitatively agree with those at pH 8.0.

MPO [1] = target: T2, MPO (Homo sapiens, UniProt P05164); experiment: Nitration of salbutamol by MPO/H2O2/NO2−, A410; format: biochemical; set-up: Myeloperoxidase (MPO) from human leucocytes (lyophilized powder); purchased Axxora, LLC (San Diego, Calif.); host or cells: human leucocytes (natural source); conditions: 50 μM salbutamol; for Nitrophenols, (%) MPO: 5.0 mM NaNO2, 5 mM H2O2, 0.2 U/mL MPO, pH 7.0, 30 min, ΔA410 versus control
Method: Spectrophotometric Measurements. Spectra are measured using an Agilent diode array spectrophotometer model 8453 (Agilent Technologies, Inc., Santa Clara, Calif.). Nitration of salbutamol is studied by measuring absorption spectra at designated time points following the start of the reaction. Samples are prepared in 100 mM phosphate buffers (pH 7.0). All buffers contained DTPA (100 μM) or are pretreated with Chelex-100 before use, and measurements are performed at ambient temperature of 20° C. Typically, the reaction is started by the addition of a small aliquot of H2O2 or the desired peroxidase. Time course measurements are carried out following changes in absorbance at 410 nm in 30 second intervals versus absorbance at 800 nm, where none of the compounds absorb.
We also examine the effect of methimazole on nitration catalyzed by MPO and EPO. 50 μM of salbutamol is reacted with 0.2 U/mL MPO, 5 mM NaNO2, and 2.1 mM H2O2 at pH buffer 7.0 in the presence of 0, 25, 50, and 100 μM methimazole (shown in FIG. 9, section B, traces a-d, respectively). In contrast to inhibition of nitration by LPO system, which was irreversible, inhibitory action of methimazole on MPO/H2O2/NO2^− is transitory.
The extent of nitration is expressed as a change in ΔA410 versus control (dapsone omitted) taken as 100% after 10, 30, and 60 minute reactions for LPO, MPO, and EPO nitrating systems, respectively. Results equal the means±SE of at least two measurements. In the LPO system, 100 μM of salbutamol, 3.4 mM of NaNO2, 4 mM of H2O2, and 65 nM of LPO is used. In the MPO system, 50 μM of salbutamol, 5.0 mM of NaNO2, 5 mM of H2O2, and 0.2 U/mL of MPO is used. In the EPO system, 50 μM of salbutamol, 5 mM of NaNO2, 2 mM of H2O2, and 0.075 U/mL of EPO is used. All reactions were carried out in pH 7.0 phosphate buffer containing DMSO (5% v/v). The term “nitrophenols” includes nitrosalbutamol (N-Sal) and salbutamol-derived nitrophenol (N—ArOH).

MPO [2] = target: T2, MPO; experiment: EPR of MNP adducts with radicals from β2-agonists generated by MPO/H2O2; format: biochemical; set-up: Myeloperoxidase (MPO) from human leucocytes (lyophilized powder); purchased Axxora, LLC (San Diego, Calif.); host or cells: human leucocytes (natural source)
Method: as §1, §2, §3, §4

T2 sequence (P05164 279-745 limits assumed): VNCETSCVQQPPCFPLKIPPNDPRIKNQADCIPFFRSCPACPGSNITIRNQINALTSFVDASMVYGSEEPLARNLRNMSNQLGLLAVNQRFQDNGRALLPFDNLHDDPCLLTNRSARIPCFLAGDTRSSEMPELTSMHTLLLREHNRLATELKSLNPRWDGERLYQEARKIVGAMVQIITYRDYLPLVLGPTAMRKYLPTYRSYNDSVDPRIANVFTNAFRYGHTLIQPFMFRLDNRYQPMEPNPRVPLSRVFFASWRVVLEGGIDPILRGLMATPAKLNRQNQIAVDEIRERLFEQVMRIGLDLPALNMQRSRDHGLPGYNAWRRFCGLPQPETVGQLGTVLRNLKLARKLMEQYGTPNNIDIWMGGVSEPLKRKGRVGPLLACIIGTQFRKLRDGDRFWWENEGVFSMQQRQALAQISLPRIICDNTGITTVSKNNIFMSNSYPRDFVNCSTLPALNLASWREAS
T2 sequence (P05164 165-273 limits assumed): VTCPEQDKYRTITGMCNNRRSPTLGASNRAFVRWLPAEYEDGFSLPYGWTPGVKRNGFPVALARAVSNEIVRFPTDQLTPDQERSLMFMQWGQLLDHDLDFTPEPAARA

Row | SMILES | Concentration of MNP spin adducts, Fenoterol, +LPO + H2O2, % of control (LPO; fenoterol 0.47 mM, inhibitor 0.86 mM, H2O2 from glucose 1 mM/glucose oxidase 0.8 μg/mL) | remaining activity at 860 µM (LPO; fenoterol 0.47 mM, inhibitor 0.86 mM, H2O2 from glucose 1 mM/glucose oxidase 0.8 μg/mL, read-out: Concentration of MNP spin adducts, Fenoterol, +LPO + H2O2, % of control) [%] | Concentration of MNP spin adducts, Terbutaline, +LPO + H2O2, % of control (LPO; terbutaline 0.47 mM, inhibitor 0.86 mM, H2O2 from glucose 1 mM/glucose oxidase 0.8 μg/mL) | remaining activity at 860 µM (LPO; terbutaline 0.47 mM, inhibitor 0.86 mM, H2O2 from glucose 1 mM/glucose oxidase 0.8 μg/mL, read-out: Concentration of MNP spin adducts, Terbutaline, +LPO + H2O2, % of control) [%] | Inhibitory action on nitration of salbutamol by MPO/H2O2/NO2− (MPO [1]; methimazole 25, 50, 100 μM, 0.2 U/mL MPO, 5 mM NaNO2, 2.1 mM H2O2, pH 7.0) | Concentration of MNP spin adducts, Fenoterol, +MPO + H2O2, % of control (MPO [2]; fenoterol 0.47 mM, inhibitor 0.86 mM, reagent H2O2 37 μM, pH 8.0) | remaining activity at 860 µM (MPO [2]; fenoterol 0.47 mM, inhibitor 0.86 mM, reagent H2O2 37 μM, pH 8.0, read-out: Concentration of MNP spin adducts, Fenoterol, +MPO + H2O2, % of control) [%] | Concentration of MNP spin adducts, Terbutaline, +MPO + H2O2, % of control (MPO [2]; terbutaline 0.47 mM, inhibitor 0.86 mM, reagent H2O2 37 μM, pH 8.0) | remaining activity at 860 µM (MPO [2]; terbutaline 0.47 mM, inhibitor 0.86 mM, reagent H2O2 37 μM, pH 8.0, read-out: Concentration of MNP spin adducts, Terbutaline, +MPO + H2O2, % of control) [%] | Concentration of MNP spin adducts, Fenoterol, +LPO + H2O2, % of control (LPO; fenoterol 0.047 mM, inhibitor 1 mM, reagent H2O2 37 μM) | remaining activity at 1000 µM (LPO; fenoterol 0.047 mM, inhibitor 1 mM, reagent H2O2 37 μM, read-out: Concentration of MNP spin adducts, Fenoterol, +LPO + H2O2, % of control) [%] | Concentration of MNP spin adducts, Terbutaline, +LPO + H2O2, % of control (LPO; terbutaline 0.047 mM, inhibitor 1 mM, reagent H2O2 37 μM) | remaining activity at 1000 µM (LPO; terbutaline 0.047 mM, inhibitor 1 mM, reagent H2O2 37 μM, read-out: Concentration of MNP spin adducts, Terbutaline, +LPO + H2O2, % of control) [%] | Nitrophenols, (%) MPO (MPO [1]; dapsone 100 μM) [%] | Nitrophenols, (%) MPO (MPO [1]; dapsone 250 μM) [%] | Nitrophenols, (%) MPO (MPO [1]; dapsone 500 μM) [%] | Effect on MPO activity (formation of radicals from fenoterol and terbutaline, MPO system) (MPO [2]; inhibitor 1 mM, MPO/H2O2)
1 | Cn1cc[nH]c1=S [Methimazole, 1-methyl-3H-imidazole-2-thione] | markedly inhibit | 26.9 ± 8.2 | markedly inhibit | 33.9 | transitory | inhibitory | 22.4 ± 0.6 | inhibitory | 33.5 ± 3.5 |  |  |  |  |  |  |  | 
2 | Nc1ccc(S(=O)(=O)c2ccc(N)cc2)cc1 [Dapsone, diamino-diphenyl sulfone] |  |  |  |  |  |  |  |  |  | markedly inhibit | 13.9 ± 0.6 | markedly inhibit | 54.6 ± 20 | 66.3 ± 0.6 | 56.0 ± 1.3 | 44.2 ± 3.0 | only a minimal effect
